US8669228B2 (Indiana University Research and Technology Corporation, priority 2007, dated 2014)
Where no end group is shown, it is not given here.

Assay: Glucagon solubility assay (UV absorbance of supernatant after pH adjustment)
Type: physicochemical
Details: for solubility relative to native glucagon: pH values of 5.5 and 7.0, after 60 hours at 25° C. (FIG. 3) or 24 hours at 25° C. then 24 hours at 4° C. (FIG. 4)

| Molecule | solubility relative to native glucagon | Percent Soluble (pH 7) |
| --- | --- | --- |
| CSCC[C@H](NC(=O)[C@H](CC(C)C)NC(=O)[C@H](Cc1c[nH]c2ccccc12)NC(=O)[C@H](CCC(N)=O)NC(=O)[C@@H](NC(=O)[C@H](Cc1ccccc1)NC(=O)[C@H](CC(=O)O)NC(=O)[C@H](CCC(N)=O)NC(=O)[C@H](C)NC(=O)[C@H](CCCNC(=N)N)NC(=O)[C@H](CCCNC(=N)N)NC(=O)[C@H](CO)NC(=O)[C@H](CC(=O)O)NC(=O)[C@H](CC(C)C)NC(=O)[C@H](Cc1ccc(O)cc1)NC(=O)[C@H](CCCCN)NC(=O)[C@H](CO)NC(=O)[C@H](Cc1ccc(O)cc1)NC(=O)[C@H](CC(=O)O)NC(=O)[C@H](CO)NC(=O)[C@@H](NC(=O)[C@H](Cc1ccccc1)NC(=O)[C@@H](NC(=O)CNC(=O)[C@H](CCC(N)=O)NC(=O)[C@H](CO)NC(=O)[C@@H](N)Cc1c[nH]cn1)[C@@H](C)O)[C@@H](C)O)C(C)C)C(=O)N[C@@H](CC(=O)O)C(=O)N[C@@H](CCC(=O)O)C(=O)O [D28, E29] | superior solubility |  |
| Glucagon, Cys17PEG5K: Glucagon Cys17 (1-29) reacted with methoxy poly(ethyleneglycol) maleimide avg. M.W. 5000 |  | 94% |
| HSQGTFTSDYSKYLESRRAQDFVQWLMDT [D28, E15] | superior solubility |  |
